Results taken from US11155577B2, “Thiol-ene based peptide stapling and uses thereof” (University of Utah Research Foundation, priority 2015, dated 2021).
Bridge positions count the residues as written; N and C are the ends. Square brackets hold non-standard residues; d marks the D form. S5 = C=CCCC[C@](C)(N)C(=O)O; Ae = not defined here

How the values were obtained:
[1] = system: p53 wild-type HCT-116 colorectal carcinoma cells; assay: Cell-viability assay (CellTiter Glo), HCT-116 p53 wild-type; type: cell-based; conditions: 24-hour incubation
Method: (§1) Both HCT-116 cell lines, i.e., HCT-116 p53 wild-type and HCT-116 p53 null, were obtained from Dr. Trudy Oliver (University of Utah). Cell lines were cultured in 10% FBS media (DMEM, Pen/Strep). Briefly. 20,000 cells/well in 1% FBS media were seeded in 96-well plates. After 24 hours, stapled peptides with various concentrations were added to each well. After another 24-hour incubation, media were aspirated and CellTiter Glo reagent was added according to the protocol from Promega. Luminescence signal was measured by automatic plate reader (BioTek Synergy Neo).

[2] = system: p53 wild-type HCT-116 colorectal carcinoma cells; conditions: F. Bernal et al., Cancer Cell 2010; cited from earlier work
[3] = Circular dichroism (CD) evaluation of alpha helicity; type: physicochemical; conditions: in water, 25° C., 100 μM peptide
Method: All CD spectra were recorded on an AVIV Model 410 spectrophotometer (AVIV) in water in a 1 mm QS quartz cuvette (Stama) at 25° C. Wavelength scans were performed at 1-nm resolution with 1-s averaging time. Data from double scans were averaged, blank subtracted, and normalized to mean residue ellipticity by the following equation; [θ]=100×θ/C×l×(n−1), where C is concentration of protein in mM, l is path length in centimeters, and n is the number of residues in the protein. The concentrations of the protein samples used for CD experiments were 100 μM. The percentage helicity was calculated from the […] at 222 nm using helical models as previously reported (Y. H. Chen, J. T. Yang, K. H. Chau. Biochemistry 1974, 13, 3350-3359).

[4] = system: p53-null HCT-116 colorectal carcinoma cells; assay: Cell-viability assay (CellTiter Glo), HCT-116 p53 null; type: cell-based; conditions: 24-hour incubation
Method: as §1

[5] = system: p53-null HCT-116 colorectal carcinoma cells; conditions: F. Bernal et al., Cancer Cell 2010; cited from earlier work
[6] = target: T1, p53-MDM2 interaction (Homo sapiens, UniProt Q00987); assay: ELISA assay for p53-MDM2 interactions; type: binding; conditions: 1-hour incubation with p53-MDM2 protein complexes
T1 construct: purchased Enzo Life Sciences
T1 sequence (Q00987 whole entry): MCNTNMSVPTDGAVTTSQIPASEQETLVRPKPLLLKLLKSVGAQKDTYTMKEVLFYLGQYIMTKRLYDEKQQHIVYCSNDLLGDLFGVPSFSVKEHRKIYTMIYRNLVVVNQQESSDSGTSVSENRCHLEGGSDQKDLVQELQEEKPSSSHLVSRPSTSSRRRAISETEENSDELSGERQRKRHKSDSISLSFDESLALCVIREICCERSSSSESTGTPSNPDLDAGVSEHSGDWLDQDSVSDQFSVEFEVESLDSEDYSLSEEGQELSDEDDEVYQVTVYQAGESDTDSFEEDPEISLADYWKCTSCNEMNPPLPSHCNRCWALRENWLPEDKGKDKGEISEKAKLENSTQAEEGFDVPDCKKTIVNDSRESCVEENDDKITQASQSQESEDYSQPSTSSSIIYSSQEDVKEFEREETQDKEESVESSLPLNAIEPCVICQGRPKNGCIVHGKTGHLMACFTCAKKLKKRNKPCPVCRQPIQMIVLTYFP
Method: The ELISA kit was purchased from Enzo Life Sciences (New York, USA). TMB substrate was purchased from Cell Signaling Technology (Massachusetts. USA). The assay was performed according to the manufacture's protocol. Briefly, p53 antibody was coated on a 96-well plate overnight. After the coating, peptides and p53-MDM2 protein complexes were diluted in assay buffer and added to the wells. After 1-hour incubation, all wells were washed and detection antibody was added. After another 1-hour incubation, SA-HRP was added and incubated for 30 minutes before TMB substrate was added. 1N HCl was then added to stop the color development and the signal was measure using automatic plate reader (BioTek Synergy Neo).

**Q.** What does the source list for “Ac-Gln-Ser-Gln-Gln-Thr-Phe-R8-Asn-Leu-Trp-Arg-Leu-Leu-S5-Gln-Asn-NH2 [Peptide 12]”?
**A.** induction of apoptosis / cell viability in p53 wild-type cells [1]: induction of apoptosis in p53 wild-type cells; induction of cell apoptosis in p53 wild-type cells (previously reported) [2]: selectively induces cell apoptosis in p53 wild-type cells; alpha helicity (CD spectra) [3]: significant increase of alpha helicity compared to the unstapled peptide 13; induction of apoptosis / cell viability in p53 null cells [4]: not p53 null cells; induction of cell apoptosis in p53 null cells (previously reported) [5]: not p53 null cells

**Q.** With “Ac-Glu-Asn-Pro-GLu-S5-Ile-Leu-Asp-S5-His-Val-Gln-Arg-Val-Met-NH2 (Ac-ENPE[S5]ILD[S5]HVQRVM-NH2; staple 5-9; SMILES CC[C@H](C)[C@@H]1NC(=O)[C@@](C)(NC(=O)[C@H](CCC(=O)O)NC(=O)[C@@H]2CCCN2C(=O)[C@H](CC(N)=O)NC(=O)[C@H](CCC(=O)O)NC(C)=O)CCCC=CCCC[C@@](C)(C(=O)N[C@@H](Cc2c[nH]cn2)C(=O)N[C@H](C(=O)N[C@@H](CCC(N)=O)C(=O)N[C@@H](CCCNC(=N)N)C(=O)N[C@H](C(=O)N[C@@H](CCSC)C(N)=O)C(C)C)C(C)C)NC(=O)[C@H](CC(=O)O)NC(=O)[C@H](CC(C)C)NC1=O) [Peptide 9]” as the substance, how does the “alpha helicity (CD spectra)” value [3] read?
**A.** strong alpha-helical characteristics

**Q.** For “Ac-Glu-Asn-Pro-Glu-Cys-Ile-Leu-Asp-Cys-His-Val-Gln-Arg-Val-Met-NH2 (Ac-ENPECILDCHVQRVM-NH2; cysteine pairing not given here) [Peptide 10, unstapled axin homologue with 2 Cys residues]”, which “alpha helicity (CD spectra)” value [3] is on record?
**A.** low alpha-helical property

**Q.** Which “blocking of the p53-MDM2 interaction” value [6] does the source give for “Ae-Gln-Ser-Gln-Gln-Thr-Phe-Cys-Asn-Leu-Trp-Arg-Leu-Leu-Cys-Gln-Asn-NH2 (Ae-QSQQTFCNLWRLLCQN-NH2; not fully specified; printed as Ae-Gln-Ser-Gln-Gln-Thr-Phe-Cys-Asn-Leu-Trp-Arg-Leu-Leu-Cys-Gln-Asn-NH2; cysteine pairing not given here; reading uncertain) [Peptide 13, unstapled p53 homologue with 2 Cys residues]” here?
**A.** did not block the p53-MDM2 interaction
